How the values were obtained:
Mouse GLP-1R = molecular target: T1, Mouse GLP-1R (Mus musculus, UniProt O35659); experiment: Functional antagonism of mouse GLP1 receptors, cAMP accumulation assay (HitHunter, CHO-K1 cells stably expressing mouse GLP-1R, Exendin-4 at EC80); format: cell-based; settings: functional pKb from IC50 corrected by Cheng-Prusoff adaptation
T1 construct: expressed in transfected cells
T1 sequence (O35659 22-463): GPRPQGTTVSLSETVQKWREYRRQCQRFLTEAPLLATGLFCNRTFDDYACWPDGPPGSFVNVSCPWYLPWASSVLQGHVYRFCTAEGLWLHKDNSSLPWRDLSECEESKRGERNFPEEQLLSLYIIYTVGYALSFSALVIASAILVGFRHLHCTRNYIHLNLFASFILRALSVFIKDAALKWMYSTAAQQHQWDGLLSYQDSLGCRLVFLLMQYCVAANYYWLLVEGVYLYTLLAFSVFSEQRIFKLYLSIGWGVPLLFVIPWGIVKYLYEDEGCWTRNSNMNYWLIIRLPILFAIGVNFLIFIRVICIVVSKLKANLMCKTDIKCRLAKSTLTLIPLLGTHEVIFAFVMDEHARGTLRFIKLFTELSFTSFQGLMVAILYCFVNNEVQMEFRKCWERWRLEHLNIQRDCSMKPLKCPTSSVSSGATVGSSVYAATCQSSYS
Text: Final DMSO concentration in the assay was 1%. […] Calculated IC50 values were corrected for the agonist concentration using an adaptation of the Cheng-Prusoff equation to generate functional pKb values: […]

Human GLP-1R = molecular target: T2, Human GLP-1R (Homo sapiens, UniProt P43220); experiment: Functional antagonism of human GLP1 receptors, cAMP accumulation assay (HiRange cAMP kit, HEK cells infected with GLP-1R Bacmam, GLP-1(7-36) amide at EC80); format: cell-based; settings: functional pKb from IC50 corrected by Cheng-Prusoff adaptation, GLP-1(7-36) at EC80
T2 construct: expressed in transfected cells; host or cells: HEK cells infected with GLP-1R BacMam
T2 sequence (P43220 24-463): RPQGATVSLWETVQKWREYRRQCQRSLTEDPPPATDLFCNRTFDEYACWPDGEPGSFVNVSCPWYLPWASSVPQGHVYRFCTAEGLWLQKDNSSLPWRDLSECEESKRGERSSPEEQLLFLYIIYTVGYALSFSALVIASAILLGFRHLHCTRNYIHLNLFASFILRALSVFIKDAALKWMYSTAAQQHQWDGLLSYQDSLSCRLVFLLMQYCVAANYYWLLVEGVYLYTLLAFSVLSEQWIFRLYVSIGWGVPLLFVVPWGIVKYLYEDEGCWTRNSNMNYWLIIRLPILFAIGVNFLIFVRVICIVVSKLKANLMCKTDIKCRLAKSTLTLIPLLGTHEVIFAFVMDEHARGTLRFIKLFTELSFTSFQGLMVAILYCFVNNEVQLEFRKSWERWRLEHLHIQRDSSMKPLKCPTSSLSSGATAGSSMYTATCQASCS
Description: The method followed a two-step protocol provided in the kit. In brief, HEK cells infected with 1% v/v GLP-1R Bacmam for 24 h were harvested using cell dissociation solution (Gibco), centrifuged and resuspended in the assay buffer (HBSS (Lonza) supplemented with 0.5 mM IBMX (Tocris)). DMSO stock of test compounds were serially diluted in the assay buffer and added to 96-well half area white plates (Costar). Final DMSO concentration in the assay was 0.3%. 20K cells per well were added to plates followed by 30 min incubation (humidified air (5% CO2), 37° C.). […] Intracellular accumulation of cAMP was stopped by addition of the HTRF detection reagents in lysis buffer, provided in the kit. Following 1-hour incubation at RT, plates were read on Pherastar FS (BMG Labtech, Inc.) Dotmatics Studies software was used for fitting data to a four-parameter concentration response curve. Calculated IC50 values were corrected for the agonist concentration using an adaptation of the Cheng-Prusoff equation to generate functional pKb values: […]

## exendin(9-39)amide [Ex 9-39]
Mouse GLP-1R
  Mouse GLP-1R antagonist cAMP fpKb: 7.2
Human GLP-1R
  Human GLP-1R antagonist cAMP fpKb: 7.8
